Experiment [1] deals with T1, PAR2 (HT-29 cells, SLIGKV activation) (Homo sapiens, UniProt P55085).
T1 construct: host or cells: HT-29 cells
T1 sequence (P55085 26-397): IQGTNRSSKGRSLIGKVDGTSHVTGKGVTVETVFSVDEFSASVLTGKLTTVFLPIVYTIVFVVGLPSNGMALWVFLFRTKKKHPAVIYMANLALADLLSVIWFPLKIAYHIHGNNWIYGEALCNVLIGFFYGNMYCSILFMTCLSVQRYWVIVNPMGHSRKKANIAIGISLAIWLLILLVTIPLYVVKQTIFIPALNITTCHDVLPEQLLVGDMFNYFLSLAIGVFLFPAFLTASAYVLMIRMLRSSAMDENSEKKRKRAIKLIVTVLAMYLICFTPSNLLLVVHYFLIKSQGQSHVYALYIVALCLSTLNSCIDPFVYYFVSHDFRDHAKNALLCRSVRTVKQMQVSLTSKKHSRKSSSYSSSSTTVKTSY
Briefly: Ca FLIPR TETRA assay, ANTAGONIST mode, stimulation with 8 μM SLIGKV. Particulars: HT-29 cells, antagonist mode, stimulation with 8 μM SLIGKV. In kind it is cell-based. A digest of the protocol: (§1)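 Antagonist-mode assay: dye-loaded HT-29 cells, compound 30 min at r.t., then stimulated with final 8 μM SLIGKV, 3.1 U/mL trypsin, 1 U/mL thrombin or 0.6 μM UTP; calcium fluorescence read.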

Experiment [2] addresses T2, PAR2 (HT-29 cells, trypsin activation) (Homo sapiens, UniProt P55085).
T2 construct: host or cells: HT-29 cells
T2 sequence (P55085 26-397): T1 sequence (P55085 26-397)
Briefly: Ca FLIPR TETRA assay, ANTAGONIST mode, stimulation with 3.1 U/mL trypsin. The following applies: HT-29 cells, antagonist mode, stimulation with 3.1 U/mL trypsin. In kind it is cell-based. A digest of the protocol:
as §1

For experiment [3], the system named is Thrombin-stimulated Ca2+ response in HT-29 cells. Briefly: Ca FLIPR TETRA assay, ANTAGONIST mode, stimulation with 1 U/mL Thrombin. In kind it is cell-based, human. The following applies: Homo sapiens; HT-29 cells, antagonist mode, stimulation with 1 U/mL Thrombin. A digest of the protocol: as §1
Experiment [4] relates to UTP-stimulated Ca2+ response in HT-29 cells. Briefly: Ca FLIPR TETRA assay, ANTAGONIST mode, stimulation with 0.6 μM UTP. Type of experiment: cell-based, human. Particulars: Homo sapiens; HT-29 cells, antagonist mode, stimulation with 0.6 μM UTP. A digest of the protocol:
as §1

By pIC50 is commonly meant −log10 of the IC50, conventionally taken in molar units.

SMILES strings stand for the structures. pIC50: −log10 of the molar value. Bounds are passed on as bounds.

Regarding `CC(C)(C)c1cc(-c2ccc(Cl)c(F)c2)nn2cc(C(=O)N3CCNC(=O)C3(C)C)nc12` [Compound I-419], the pIC50 in experiment [1] was 8.96; in experiment [2], 9.05; in experiment [3], below 6.00; in experiment [4] it was below 6.00.
With `Cc1cc(C(=O)N2CCN(C(=O)c3cn4nc(-c5ccc(F)cc5)cc(C(C)(C)F)c4n3)C(C)(C)C2)[nH]n1` [Compound I-420], the pIC50 in experiment [1] was 8.77; in experiment [2] it was 8.62; in experiment [3] it was below 6.00; in experiment [4], below 6.00.
Consider `Cc1ccc(-c2cc(C(C)(C)C)c3nc(C(=O)N4CCN(C(=O)c5cnc(C)[nH]5)CC4(C)C)cn3n2)cc1` [Compound I-422], for which the negative logarithm of the IC50 (pIC50) in experiment [1] was 8.72; in experiment [2] it was 8.70; in experiment [3], below 6.00; in experiment [4] it was below 6.00.
Turning to `Cc1ncc(C(=O)N2CCN(C(=O)c3cn4nc(-c5ccc(C(F)(F)F)cc5)cc(C(C)(C)C)c4n3)C(C)(C)C2)[nH]1` [Compound I-423], the negative-log IC50 (pIC50) was 8.77 in experiment [1], 8.66 in experiment [2], below 6.00 in experiment [3] and below 6.00 in experiment [4].
As for `Cc1ccc(-c2cc(C(C)(C)C)c3nc(C(=O)N4CCN(C(=O)c5ccn[nH]5)CC4(C)C)cn3n2)cc1F` [Compound I-424], the negative logarithm of the IC50 (pIC50) is 9.05 in experiment [1], 8.92 in experiment [2], below 6.00 in experiment [3] and below 6.00 in experiment [4].
Regarding `Cc1ccc(-c2cc(C(C)(C)C)c3nc(C(=O)N4CCN(C(=O)c5ccccn5)CC4(C)C)cn3n2)cc1F` [Compound I-425], the pIC50 in experiment [1] is 8.82; in experiment [2], 8.92; in experiment [3], below 6.00; in experiment [4] it was below 6.00.
As for `Cc1ccc(-c2cc(C(C)(C)C)c3nc(C(=O)N4CCN(C(=O)c5ncccn5)CC4(C)C)cn3n2)cc1F` [Compound I-426], the negative-log IC50 (pIC50) in experiment [1] is 8.77; in experiment [2], 8.74; in experiment [3], below 6.00; in experiment [4], below 6.00.
Consider `Cc1cc(C(=O)N2CCN(C(=O)c3cn4nc(-c5ccc(C)c(F)c5)cc(C(C)(C)C)c4n3)C(C)(C)C2)[nH]n1` [Compound I-427], for which the negative-log IC50 (pIC50) was 9.30 in experiment [1], 9.15 in experiment [2], below 6.00 in experiment [3] and below 6.00 in experiment [4].
In the case of `CC(C)(C)c1cc(C2CCC(F)(F)CC2)nn2cc(C(=O)N3CCNC(=O)C3(C)C)nc12` [Compound I-428], the pIC50 in experiment [1] was 7.51; in experiment [2], 7.22; in experiment [3], below 6.00; in experiment [4], below 6.00.
`CC(C)(C)c1cc(C2CCC(F)(F)CC2)nn2cc(C(=O)N3CCN(c4c[nH]cn4)C(=O)C3(C)C)nc12` [Compound I-430]: the pIC50 is 7.79 in experiment [1], 7.62 in experiment [2], below 6.00 in experiment [3] and below 6.00 in experiment [4].
With `Cc1ncc(C(=O)N2CCN(C(=O)c3cn4nc(-c5ccc(C)c(F)c5)cc(C(C)(C)C)c4n3)C(C)(C)C2)[nH]1` [Compound I-431], the negative-log IC50 (pIC50) is 8.85 in experiment [1], 8.80 in experiment [2], below 6.00 in experiment [3] and below 6.00 in experiment [4].
Turning to `Cc1nnc(C(=O)N2CCN(C(=O)c3cn4nc(-c5ccc(C)c(F)c5)cc(C(C)(C)C)c4n3)C(C)(C)C2)o1` [Compound I-432], the negative-log IC50 (pIC50) was 8.72 in experiment [1], 8.68 in experiment [2], below 6.00 in experiment [3] and below 6.00 in experiment [4].
As for `Cc1cc(C(=O)N2CCN(C(=O)c3cn4nc(-c5ccc(F)cc5)cc(C(C)(C)C)c4n3)C(C)(C)C2)no1` [Compound I-433], the pIC50 in experiment [1] is 9.15; in experiment [2], 8.96; in experiment [3], below 6.00; in experiment [4] it was below 6.00.
For the compound `Cc1cc(C(=O)N2CCN(C(=O)c3cn4nc(-c5ccc(Cl)cc5)cc(C(C)(C)C)c4n3)C(C)(C)C2)[nH]n1` [Compound I-434], the negative-log IC50 (pIC50) in experiment [1] is 9.30; in experiment [2], 9.30; in experiment [3], below 6.00; in experiment [4], below 6.00.
`CC(C)(C)c1cc(-c2ccc(Cl)cc2)nn2cc(C(=O)N3CCN(C(=O)c4ccn[nH]4)CC3(C)C)nc12` [Compound I-435]: the pIC50 in experiment [1] was 9.10; in experiment [2], 9.15; in experiment [3], below 6.00; in experiment [4], below 6.00.
As for `Cc1cc(C(=O)N2CCN(C(=O)c3cn4nc(C5CCC(F)(F)CC5)cc(C(C)(C)C)c4n3)C(C)(C)C2)[nH]n1` [Compound I-437], the pIC50 in experiment [1] was 9.15; in experiment [2] it was 8.70; in experiment [3], below 6.00; in experiment [4], below 6.00.
`CC(C)(C)c1cc(-c2ccc(F)c(Cl)c2)nn2cc(C(=O)N3CCNC(=O)C3(C)C)nc12` [Compound I-438]: the pIC50 in experiment [1] was 8.82; in experiment [2], 8.59; in experiment [3], below 6.00; in experiment [4] it was below 6.00.
Take `Cc1cc(F)ccc1-c1cc(C(C)(C)C)c2nc(C(=O)N3CCNC(=O)C3(C)C)cn2n1` [Compound I-439]: the pIC50 was 7.09 in experiment [1], 6.90 in experiment [2], below 6.00 in experiment [3] and below 6.00 in experiment [4].
As for `Cc1cc(-c2cc(C(C)C)c3nc(C(=O)N4CCN(C)C(=O)C4(C)C)cn3n2)ccc1F` [Compound I-440], the pIC50 was 8.09 in experiment [1], 7.85 in experiment [2], below 6.00 in experiment [3] and below 6.00 in experiment [4].
As for `Cc1ncc(C(=O)N2CCN(C(=O)c3cn4nc(-c5ccc(Cl)cc5)cc(C(C)(C)C)c4n3)C(C)(C)C2)[nH]1` [Compound I-441], the negative logarithm of the IC50 (pIC50) is 9.30 in experiment [1], 9.22 in experiment [2], below 6.00 in experiment [3] and below 6.00 in experiment [4].
As for `Cc1cc(-c2cc(C(C)C)c3nc(C(=O)N4CN(Cc5ccccc5)C(=O)C4(C)C)cn3n2)ccc1F` [Compound I-442, 3-benzyl-1-[6-(4-fluoro-3-methyl-phenyl)-8-isopropyl-imidazo[1,2-b]pyridazine-2-carbonyl]-5,5-dimethyl-imidazolidin-4-one], the negative-log IC50 (pIC50) was 6.96 in experiment [1], 6.82 in experiment [2], below 6.00 in experiment [3] and below 6.00 in experiment [4].
As for `Cc1nnc(C(=O)N2CCN(C(=O)c3cn4nc(-c5ccc(Cl)cc5)cc(C(C)(C)C)c4n3)C(C)(C)C2)o1` [Compound I-443], the pIC50 in experiment [1] was 9.10; in experiment [2], 8.92; in experiment [3] it was below 6.00; in experiment [4], below 6.00.
For `CC(C)(C)c1cc(-c2ccc(Cl)cc2)nn2cc(C(=O)N3CCN(C(=O)c4ccccn4)CC3(C)C)nc12` [Compound I-444], the negative-log IC50 (pIC50) was 9.10 in experiment [1], 8.89 in experiment [2], below 6.00 in experiment [3] and below 6.00 in experiment [4].
Consider `CC(C)(C)c1cc(-c2ccc(Cl)cc2)nn2cc(C(=O)N3CCN(C(=O)c4ncccn4)CC3(C)C)nc12` [Compound I-445], for which the negative-log IC50 (pIC50) in experiment [1] is 9.40; in experiment [2], 9.05; in experiment [3] it was below 6.00; in experiment [4] it was below 6.00.
Turning to `CC(C)(C)C1CC(c2ccc(F)cc2)=Nn2cc(C(=O)N3CCNC(=O)C3(C)C)nc21` (stereo not drawn) [Compound I-446], the pIC50 in experiment [1] is 7.25; in experiment [2], 6.98; in experiment [3] it was below 6.00; in experiment [4] it was below 6.00.
For `Cc1cc(C2=Nn3cc(C(=O)N4CCNC(=O)C4(C)C)nc3C(C(C)C)C2)ccc1F` (stereo not drawn) [Compound I-447], the negative logarithm of the IC50 (pIC50) was 6.77 in experiment [1], 6.74 in experiment [2], below 6.00 in experiment [3] and below 6.00 in experiment [4].
Turning to `Cc1cc(-c2cc(C(C)C)c3nc(C(=O)N4CCN(CC(C)(C)O)C(=O)C4(C)C)cn3n2)ccc1F` [Compound I-449], the pIC50 is 7.59 in experiment [1], 7.33 in experiment [2], below 6.00 in experiment [3] and below 6.00 in experiment [4].
Turning to `Cc1cc(C(=O)N2CCN(C(=O)c3cn4nc(-c5ccc(Cl)c(F)c5)cc(C(C)(C)C)c4n3)C(C)(C)C2)[nH]n1` [Compound I-450], the pIC50 in experiment [1] is 10.00; in experiment [2], 9.52; in experiment [3], below 6.00; in experiment [4] it was below 6.00.
As to `Cc1nc(C(=O)N2CCN(C(=O)c3cn4nc(-c5ccc(Cl)c(F)c5)cc(C(C)(C)C)c4n3)C(C)(C)C2)n[nH]1` [Compound I-451], the pIC50 in experiment [1] is 10.00; in experiment [2] it was 9.52; in experiment [3] it was below 6.00; in experiment [4], 6.15.
For `Cc1ncc(C(=O)N2CCN(C(=O)c3cn4nc(-c5ccc(Cl)c(F)c5)cc(C(C)(C)C)c4n3)C(C)(C)C2)[nH]1` [Compound I-453] the same measures were 9.15, 8.92, below 6.00 and below 6.00.

The values are drawn from patent publication US20190119282A1, “IMIDAZOPYRIDAZINES USEFUL AS INHIBITORS OF THE PAR-2 SIGNALING PATHWAY” (Vertex Pharmaceuticals Incorporated, priority 2013, published 2019).
